Data published in ChEMBL document CHEMBL5674860, “Optimized Dual-Glo Assay to identify co-culture-induced drug vulnerabilities in 3D CRC models” (2024).

What was measured:
Assay type in all cases: functional, Homo sapiens
Set-up in all cases: dose or concentration left out as unconfirmed
Colon cancer organoid [1] = assay: Optimized Dual-Glo assay to identify co-culture induced drug vulnerabilities using donated chemical probes and chemogenomics kinase set in O06 CRC organoid and F06 CAF mono and co-culture. […] Cell viability is reported both mono and co-culture models.
Colon cancer organoid [2] = assay: Optimized Dual-Glo assay to identify co-culture induced drug vulnerabilities using donated chemical probes and chemogenomics kinase set in O14 CRC organoid and F14 CAF mono and co-culture. […] Cell viability is reported both mono and co-culture models.
Colon cancer organoid [3] = assay: Optimized Dual-Glo assay to identify co-culture induced drug vulnerabilities using donated chemical probes and chemogenomics kinase set in O20 CRC organoid and F20 CAF mono and co-culture. […] Cell viability is reported both mono and co-culture models.
[4] = Culture type Co-Culture, Transduced with Lucferase2-P2A-EGFP lentivirus
[5] = Culture type Co-Culture, Transduced with Renilla-dsRed lentivirus
[6] = Culture type Mono-Culture, Transduced with Lucferase2-P2A-EGFP lentivirus
[7] = Culture type Mono-Culture, Transduced with Renilla-dsRed lentivirus

Compound	Cell Viability (Colon cancer organoid [1]; [4])	Cell Viability (Colon cancer organoid [1]; [5])	Cell Viability (Colon cancer organoid [1]; [6])	Cell Viability (Colon cancer organoid [1]; [7])	Cell Viability (Colon cancer organoid [2]; [4])	Cell Viability (Colon cancer organoid [2]; [5])	Cell Viability (Colon cancer organoid [2]; [6])	Cell Viability (Colon cancer organoid [2]; [7])	Cell Viability (Colon cancer organoid [3]; [4])	Cell Viability (Colon cancer organoid [3]; [5])	Cell Viability (Colon cancer organoid [3]; [6])	Cell Viability (Colon cancer organoid [3]; [7])
O=C(c1ccc(F)c(F)c1Nc1ccc(I)cc1F)N1CC(O)([C@@H]2CCCCN2)C1 [COBIMETINIB]	5.143%	42.4292%	6.053%	35.0976%	2.787%	24.389%	1.583%	12.612%	4.023%	77.761%	4.662%	37.2771%
COc1c(OCCCN2CCOCC2)ccc2c1N=C(NC(=O)c1cnc(N)nc1)N1CCN=C21 [COPANLISIB]	1.487%	40.0213%	1.127%	24.3347%	3.879%	63.1617%	2.323%	50.5605%	2.276%	117.524%	0.6907%	109.388%
COCC(=O)NC/C=C/c1ccc2ncnc(Nc3ccc(Oc4ccc(C)nc4)c(C)c3)c2c1 [CP-724714]	64.178%	58.1065%	46.8341%	91.801%	60.8642%	107.55%	48.0446%	87.9569%	97.3561%	94.0282%	76.6577%	85.6537%
CN([C@@H]1CCc2c(CC(=O)O)c3cc(S(C)(=O)=O)ccc3n2C1)S(=O)(=O)c1ccc(F)cc1 [CRTH2-negative-control]	107.688%	114.368%	103.342%	104.475%	89.9276%	115.062%	117.685%	97.6178%	107.561%	126.69%	138.147%	108.987%
CNC(=O)c1ccc(Nc2ncc(C(F)(F)F)c(NCc3nccnc3N(C)S(C)(=O)=O)n2)cc1 [DEFACTINIB]	127.858%	116.047%	102.967%	60.766%	83.442%	104.135%	42.8527%	104.257%	57.0475%	79.7534%	66.5234%	63.7293%
CCN(CCO)CCCOc1ccc2c(Nc3cc(CC(=O)Nc4cccc(F)c4)[nH]n3)ncnc2c1 [DEFOSBARASERTIB]	10.7234%	183.999%	3.3988%	94.753%	15.638%	174.95%	26.1499%	95.9515%	5.365%	225.013%	11.3206%	105.29%
Cn1c(C2(NC(=O)c3ccc4c(C5CCCC5)c(-c5ncc(Br)cn5)n(C)c4c3)CCC2)nc2ccc(/C=C/C(=O)O)cc21 [DELEOBUVIR]	116.632%	84.3073%	123.499%	101.583%	94.147%	102.969%	81.1663%	89.5103%	79.9036%	130.288%	108.218%	110.732%
